Measurements: US20080014272A1, “Compositions and Methods for Treatment of Chronic Pain Conditions” (priority 2006, published 2008)

How the values were obtained:
[1] = Visual analog scale (VAS) of osteoarthritis pain in human osteoarthritis subjects; format: in vivo; settings: 400 mg bicifadine and/or 800 mg ibuprofen twice daily for seven days; baseline to 3 hours post dose on final day; FIG. 2
Description: (§1) 23 adult human subjects with clinically confirmed osteoarthritis (OA) of the hip or knee were selected based on (1) a finding of OA through clinical analysis of hip or knee pain for at least six months, (2) stiffness symptoms that persisted for more than 30 minutes (4) crepitus and (5) score of >40 mm on the visual analog scale (VAS). […]
(§2) Each patient's pain and function levels was rated just prior to administration of the first dose in each treatment period to establish a baseline and three hours after administration of the final dose of each treatment period. Subjects were evaluated according to the visual analog scale (FIG. 2), the Western Ontario and MacMaster Universities Osteoarthritis Index (WOMAC) (FIG. 3) and a global assessment score (FIG. 4).
For the visual analog scale, each subject was asked the following question: “Draw a vertical line on the scale to indicate the average amount osteoarthritis pain you have in your index hip or knee in the prior 24 h period. • No Pain [______] Worst Pain You Can Imagine 100 mm The length of the line from “No Pain” to the vertical line drawn by the patient was then measured to determine the VAS measurement.

[2] = WOMAC Osteoarthritis Index in human osteoarthritis subjects; format: in vivo; settings: 400 mg bicifadine and/or 800 mg ibuprofen twice daily for seven days; 3 h post-dose on last day; FIG. 3
Description: as §1, §2
Subjects were also evaluated according to the Western Ontario and MacMaster Universities Osteoarthritis Index (WOMAC) and asked the following series of questions: […]

[3] = Global Assessment of Study Medication in human osteoarthritis subjects; format: in vivo; settings: 400 mg bicifadine and/or 800 mg ibuprofen twice daily for seven days; 3 h post-dose on last day; scale 0-4; FIG. 4
Description: 23 adult human subjects with clinically confirmed osteoarthritis (OA) of the hip or knee were selected based on (1) a finding of OA through clinical analysis of hip or knee pain for at least six months, (2) stiffness symptoms that persisted for more than 30 minutes (4) crepitus and (5) score of >40 mm on the visual analog scale (VAS). […] (Altman R. Asch E, Bloch D, Bole G, Borenstein D, Brandt K, et al. The American College of Rheumatology criteria for the classification and reporting of osteoarthritis of the knee. Arthritis Rheum 1986; 29:1039-1049) The subjects were randomized to a sequence of 400 mg of bicifadine twice daily for seven days (B), ibuprofen 800 mg twice daily for seven days (I), placebo twice daily for seven days (P), or 400 mg bicifadine and 800 mg ibuprofen twice daily for seven days (B+I) as shown in Table 3. […]
as §2
Subjects were further evaluated for a global assessment and were asked the following question: […]

[4] = Duration of analgesic efficacy and plasma bicifadine levels in acute pain studies; format: in vivo, human; settings: bicifadine HCl, unit doses about 200 mg, 400 mg, or 600 mg; acute dental pain and bunionectomy pain studies
Description: Duration of analgesic efficacy of bicifadine in acute dental pain studies was estimated using a “last observation carried forward” (LOCF) statistical method, and was projected to last up to 6 hours, or even up to 12 hours (see, e.g., Czobor P., et al., Stark J., Beer G., Petti S., Lippa A., Brown J., Beer B.: A Double-Blind, Placebo Controlled Randomized Study of DOV220,075 (bicifadine) SR and Codeine 60 mg in the Treatment of Post-Operative Dental Pain. Presented at the 2nd Annual Scientific Meeting Mar. 20-23, 2003 Chicago, Ill. American Pain Society Abstract Database at http://www.ampainsoc.org/abstract/2003/data/index.html. (Poster #915)); Czobor P., Stark J., Beer G., Brown J., Sunshine A., Konery S., Turpin M., Olson N., Otero A., Lippa A., Beer B.: A two center double-blind, placebo-controlled randomized study of DOV 220,075 (bicifadine) SR and Tramadol 100 mg in the treatment of post-operative dental pain. The Journal of Pain, 2004: 5(1), Supplement 1, p 59. Presented at the Joint APS and Canadian Pain Society Annual Meeting (23rd APS Annual Scientific Meeting) May 6-9, 2004, Vancouver, BC Canada. American Pain Society Abstract Database at http://www.ampainsoc.org/abstract/2004/data/index.html (Poster #801); each incorporated herein by reference). […]

[5] = Monoiodoacetamide (MIA)-induced osteoarthritis in rats, hind paw weight distribution; format: in vivo, Male Wistar rats; settings: oral gavage (PO), Day 14 post MIA injection, 1 and 2 hours post-administration; bicifadine 5, 10, 20, 40 or 60 mg/kg, morphine 60 mg/kg; FIG. 1
Description: Animals were fed standard rat chow with water available ad libitum.
The rats were anesthetized with 5% volume/volume (“v/v”) isoflurane gas and maintained with 2% v/v isoflurane gas. […] MIA was dissolved in physiologic saline and administered in a volume of 50 μL. The contralateral control knee was injected with 50 μL of physiologic saline. Administration of isoflurane gas was discontinued, and the rats became fully conscious about 5 minutes later.
Shifts in hind paw weight distribution from the right to the left hind paws supporting the right (arthritic) and the left (contralateral control) hind leg knee joints were utilized as an index of joint pain and as a measure of compound efficacy. An incapacitance tester (Model 2KG, Linton Instrumentation, UK) was employed for determination of hind paw weight distribution.
The acute dosing paradigm used herein relates to osteoarthritis signs such as mobility and joint function and osteoarthritis symptoms such as joint pain.

[6] = acute dental pain; Stern et al. 2005; cited from earlier work
[7] = Use of rescue medication in acute dental pain clinical trial (Stern et al.); format: in vivo, human
Description: These conclusions are further substantiated by the use of rescue medication by subjects in the Stem et al. acute dental pain studies. Table I below summarizes information on the use of rescue medication for patients who took rescue medication among the various treatment groups in the clinical trial reported by Stern et al. (id.) A nonparametric analysis (Median Test) was conducted to evaluate the median latency to rescue medication.
Survival analysis (Kaplan-Meier method, 95% confidence) was performed to compare the treatment groups with regard to time-to-rescue medication. […] The analysis yielded a statistically significant difference among the treatment groups (Log-Rank test, Chi-square=26.9, df=4, P=0.0001). […] In view of the foregoing evidence, the present disclosure documenting efficacy of a reduced, bi-daily or less frequent dosing regimen of bicifadine to yield effective treatment of chronic pain are unexpected. […] It is a surprising benefit, therefore, that a dosing regimen consisting of only one or two doses of bicifadine effectively alleviates symptoms of chronic pain over an extended period. The extended period of efficacy of the novel compositions and dosage forms of the invention provide significant relief of chronic pain symptoms over a period of at least 8 hours, or at least 12 hours, often at least 18 hours, and up to 24 hours or longer.

SMILES	Reduction of OA pain as measured by the visual analog scale [1]	Improvement of functioning as determined by the WOMAC osteoarthritis index [2]	Global assessment score of study medication [3]	Period of analgesic efficacy for effectively treating acute pain [4]	Effect on osteoarthritis-related pain (change in hind paw weight distribution) [5]	Plasma bicifadine levels associated with the greatest pain relief [6]	Plasma drug levels associated with significant analgesic efficacy [6]	Plasma drug levels not associated with significant analgesic effects [6]	Time-to-rescue medication vs placebo (Kaplan-Meier survival analysis, Log-Rank test) ([7]; 100-mg, Chi-square=18.7, df=1, P=0.0001)	Median Time to Rescue Medication ([7]; single dose 100 mg)	Used Rescue Medication (N) No ([7]; single dose 100 mg)	Used Rescue Medication (N) Yes ([7]; single dose 100 mg)
Cc1ccc(C23CNCC2C3)cc1 (racemic) [bicifadine, (±)-1-(4-methylphenyl)-3-azabicyclo[3.1.0]hexane]	no different than treatment with placebo	no better than placebo	marginally better than treatment with either placebo or ibuprofen alone	up to 6 hours	no significant effect	> 1000 ng/mL	0.5 to 1 µg/mL	≤ 0.5 µg/mL				
COc1cccc(C2(O)CCCCC2CN(C)C)c1 (centres unmarked) [Tramadol]									significantly less likely to use rescue medication	2.45 h	24	85
CC(C)Cc1ccc(C(C)C(=O)O)cc1 (centres unmarked) [ibuprofen, reference compound]	no different than treatment with placebo	no better than placebo										
